Patent US11491227B2, “Cucurbituril-based hydrogels” (CAMBRIDGE ENTERPRISE LIMITED, priority 2012, dated 2022)

Tests used:
[1] = tested on: PVA-MV@CB[8]; experiment: ITC second guest binding to PVA-MV in the presence of CB[8]; conditions: 25° C., 10 mM PBS buffer pH 7.0
Protocol: ITC titration experiments were carried out on a VP-ITC from Microcal Inc. at 25° C. in 10 mM sodium phosphate buffer (pH=7). In a typical experiment, the host was in the sample cell at a concentration of 0.1 mM, and the guest was in the syringe at a 10 fold higher concentration. In the case of functional polymers, the concentration used is determined from the concentration of functional monomer units in solution and not the concentration of polymer. A titration consisted of 29 consecutive injections of 2-10 mL with at least 300 s intervals between injections. The first data point was removed from the data set prior to curve fitting. Heats of dilution were checked by titration well beyond saturation or by titration of the guest into a buffer solution and subtracted from the normalized enthalpies, but relatively small in all cases. The data were analyzed with Origin 7.0 software, using the one set of sites model.
Isothermal titration calorimetry (ITC) was used for quantitative investigation of the respective binding thermodynamics for the HEC-Np and PVA-MV with CB[8]

[2] = tested on: L929 mouse broblast cells; conditions: 1 ppm; cited from earlier work

With `Oc1ccc2ccccc2c1` [NpOH, 2-naphthol] the Ka [1] was “(1.10 ± 0.03) × 10^5 M^−1”.
In the case of dibutyltin dilaurate [TDL], the cytotoxic response [2] is listed as “does not elicit a cytotoxic response”.
